According to US8394787B2, “7-aza-spiro[3.5]nonane-7-carboxylate derivatives, preparation thereof and therapeutic use thereof” (Sanofi, priority 2009, dated 2013):
Structures can show the parent of a compound that is named as a salt.

System: not given
Assay: not given
Details: not given

| Structure (SMILES) | melting point [°C] |
| --- | --- |
| O=C(OCc1cscn1)N1CCC2(CC1)CC(Oc1ccc(Cl)cc1)C2 | 86 to 88 |
| Cn1ncnc1COC(=O)N1CCC2(CC1)CC(Oc1ccc(Cl)cc1)C2 (as salt: HCl) | 163 to 165 |
| CNC(=O)c1cc(COC(=O)N2CCC3(CC(Oc4ccc(Cl)cc4)C3)C2)on1 (single isomer, unassigned) | 94 to 97 |
| CNC(=O)c1cc(COC(=O)N2CCC3(CC(Oc4ccc(-c5ccc(F)cc5)cc4)C3)C2)on1 (single isomer, unassigned) [Compound 29, 3-methylcarbamoyl-isoxazol-5-ylmethyl 2-(4′-fluorobiphenyl-4-yloxy)-6-aza-spiro[3.4]octane-6-carboxylate] | 135 to 137 |
| CNC(=O)c1cc(COC(=O)N2CCC3(CC(Oc4ccc(-c5ccc(F)cc5)cc4)C3)C2)on1 (single isomer, unassigned) [Compound 32, 3-methylcarbamoyl-isoxazol-5-ylmethyl 2-(4′-fluorobiphenyl-4-yloxy)-6-aza-spiro[3.4]octane-6-carboxylate] | 149 to 151 |
| CNC(=O)c1cc(COC(=O)N2CCC3(CC(Oc4ccc(-c5ccc(F)cc5)cc4)C3)C2)on1 (single isomer, unassigned) [Compound 33, 3-methylcarbamoyl-isoxazol-5-ylmethyl 2-(4′-fluorobiphenyl-4-yloxy)-6-aza-spiro[3.4]octane-6-carboxylate] | 150 to 152 |
| CNC(=O)c1cc(COC(=O)N2CCC3(CC2)CC(Oc2ccc(Cl)cc2)C3)on1 [Compound 3, 3-methylcarbamoyl-isoxazol-5-ylmethyl 2-(4-chlorophenoxy)-7-aza-spiro[3.5]nonane-7-carboxylate] | 147 to 149 |
| NC(=O)c1cc(COC(=O)N2CCC3(CC2)CC(Oc2ccc(Cl)cc2)C3)on1 [Compound 4, 3-carbamoyl-isoxazol-5-ylmethyl 2-(4-chlorophenoxy)-7-aza-spiro[3.5]nonane-7-carboxylate] | 70 to 72 |
| CCOc1ccc2ccc(OC3CC4(CCN(C(=O)OCc5cc(C(=O)NC)no5)CC4)C3)cc2c1 [Compound 8, 3-methylcarbamoyl-isoxazol-5-ylmethyl 2-(7-ethoxynaphthalen-2-yloxy)-7-aza-spiro[3.5]nonane-7-carboxylate] | 73 to 75 |
| NC(=O)c1cc(COC(=O)N2CCC3(CC2)CC(Oc2cccc(-c4ccc(F)cc4)c2)C3)on1 [Compound 12, 3-carbamoyl-isoxazol-5-ylmethyl 2-(4′-fluorobiphenyl-3-yloxy)-7-aza-spiro[3.5]nonane-7-carboxylate] | 74 to 76 |

Next, values leading:

| melting point [°C] | Structure (SMILES) |
| --- | --- |
| 90 to 92 | NC(=O)c1coc(COC(=O)N2CCC3(CC(Oc4cccc(C(F)(F)F)c4)C3)C2)n1 (single isomer, unassigned) [Compound 14, 4-carbamoyl-oxazol-2-ylmethyl 2-(3-trifluoromethylphenoxy)-6-aza-spiro[3.4]octane-6-carboxylate] |
| 83 to 92 | NC(=O)c1cc(COC(=O)N2CCC3(CC(Oc4ccc(Cl)c(F)c4)C3)C2)on1 (single isomer, unassigned) [Compound 26, 3-carbamoyl-isoxazol-5-ylmethyl 2-(4-chloro-3-fluorophenoxy)-6-aza-spiro[3.4]octane-6-carboxylate] |
| 131 to 133 | NC(=O)c1cc(COC(=O)N2CCC3(CC(Oc4ccc(-c5ccc(F)cc5)cc4)C3)C2)on1 (single isomer, unassigned) [Compound 28, 3-carbamoyl-isoxazol-5-ylmethyl 2-(4′-fluorobiphenyl-4-yloxy)-6-aza-spiro[3.4]octane-6-carboxylate] |
| 149 to 150 | NC(=O)c1cc(COC(=O)N2CCC3(CC(Oc4ccc(Cl)c5ccccc45)C3)C2)on1 (single isomer, unassigned) [Compound 30, 3-carbamoyl-isoxazol-5-ylmethyl 2-(4-chloronaphthalen-1-yloxy)-6-aza-spiro[3.4]octane-6-carboxylate] |
| 87 to 92 | CNC(=O)c1cc(COC(=O)N2CCC3(CC(Oc4ccc(Cl)c5ccccc45)C3)C2)on1 (single isomer, unassigned) [Compound 31, 3-methylcarbamoyl-isoxazol-5-ylmethyl 2-(4-chloronaphthalen-1-yloxy)-6-aza-spiro[3.4]octane-6-carboxylate] |
| 114 to 116 | CCOc1ccc2ccc(OC3CC4(CCN(C(=O)OCc5cc(C(N)=O)no5)CC4)C3)cc2c1 [Compound 13, 3-carbamoyl-isoxazol-5-ylmethyl 2-(7-ethoxynaphthalen-2-yloxy)-7-aza-spiro[3.5]nonane-7-carboxylate] |
| 75 to 77 | NC(=O)c1cc(COC(=O)N2CCC3(CC2)CC(Oc2ccc(Cl)c4ccccc24)C3)on1 [Compound 16, 3-carbamoyl-isoxazol-5-ylmethyl 2-(4-chloronaphthalen-1-yloxy)-7-aza-spiro[3.5]nonane-7-carboxylate] |
| 62 to 64 | CNC(=O)c1cc(COC(=O)N2CCC3(CC2)CC(Oc2ccc(Cl)c4ccccc24)C3)on1 [Compound 17, 3-methylcarbamoyl-isoxazol-5-ylmethyl 2-(4-chloronaphthalen-1-yloxy)-7-aza-spiro[3.5]nonane-7-carboxylate] |
| 163 to 165 | NC(=O)c1cc(COC(=O)N2CCC3(CC2)CC(Oc2ccc(-c4ccc(F)cc4)cc2)C3)on1 [Compound 18, 3-carbamoyl-isoxazol-5-ylmethyl 2-(4′-fluorobiphenyl-4-yloxy)-7-aza-spiro[3.5]nonane-7-carboxylate] |
| 130 to 132 | CNC(=O)c1csc(COC(=O)N2CCC3(CC2)CC(Oc2cccc(-c4ccc(F)cc4)c2)C3)n1 [Compound 20, 4-methylcarbamoyl-thiazol-2-ylmethyl 2-(4′-fluorobiphenyl-3-yloxy)-7-aza-spiro[3.5]nonane-7-carboxylate] |
| 79 to 81 | CNC(=O)c1cc(COC(=O)N2CCC3(CC2)CC(Oc2ccc4ccncc4c2)C3)on1 [Compound 21, 3-methylcarbamoyl-isoxazol-5-ylmethyl 2-(isoquinolin-7-yloxy)-7-aza-spiro[3.5]nonane-7-carboxylate] |
| 107 to 108 | CNC(=O)c1cc(COC(=O)N2CCC3(CC2)CC(Oc2ccc(Cl)c(F)c2)C3)on1 [Compound 22, 3-methylcarbamoyl-isoxazol-5-ylmethyl 2-(4-chloro-3-fluorophenoxy)-7-aza-spiro[3.5]nonane-7-carboxylate] |
| 84 to 86 | CNC(=O)c1cc(COC(=O)N2CC3(CC(Oc4ccc(Cl)c(F)c4)C3)C2)on1 [Compound 23, 3-methylcarbamoyl-isoxazol-5-ylmethyl 6-(4-chloro-3-fluorophenoxy)-2-aza-spiro[3.3]heptane-2-carboxylate] |
| 135 to 137 | NC(=O)c1cc(COC(=O)N2CC3(CC(Oc4ccc(Cl)c(F)c4)C3)C2)on1 [Compound 24, 3-carbamoyl-isoxazol-5-ylmethyl 6-(4-chloro-3-fluorophenoxy)-2-aza-spiro[3.3]heptane-2-carboxylate] |

Target: T1, enzyme FAAH (Fatty Acid Amide Hydrolase) (Mus musculus, UniProt O08914)
T1 construct: The membrane homogenates are prepared extemporaneously by homogenizing the tissues; from tissue; host or cells: mouse brain (minus the cerebellum), homogenate
T1 sequence (O08914 1-579): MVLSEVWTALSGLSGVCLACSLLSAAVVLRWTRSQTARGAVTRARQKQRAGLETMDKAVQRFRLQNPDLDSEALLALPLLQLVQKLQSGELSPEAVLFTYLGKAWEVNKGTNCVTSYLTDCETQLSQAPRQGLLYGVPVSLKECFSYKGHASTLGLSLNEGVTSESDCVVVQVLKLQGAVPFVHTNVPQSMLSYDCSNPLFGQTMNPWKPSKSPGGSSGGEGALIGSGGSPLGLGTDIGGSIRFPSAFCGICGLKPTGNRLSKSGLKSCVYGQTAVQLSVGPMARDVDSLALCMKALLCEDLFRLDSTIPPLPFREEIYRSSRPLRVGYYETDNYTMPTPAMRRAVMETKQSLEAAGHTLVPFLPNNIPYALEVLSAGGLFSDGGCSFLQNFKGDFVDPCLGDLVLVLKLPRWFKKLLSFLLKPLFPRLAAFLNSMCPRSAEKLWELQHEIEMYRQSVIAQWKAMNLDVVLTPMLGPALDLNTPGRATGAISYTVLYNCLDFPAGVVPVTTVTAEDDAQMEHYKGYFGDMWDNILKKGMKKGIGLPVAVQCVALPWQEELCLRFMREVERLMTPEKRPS
Assay: FAAH radio-enzymatic test, hydrolysis of [1-3H ethanolamine] anandamide (protocol 1)
Assay type: biochemical
Details: mouse brain membrane homogenate, anandamide 10 μM, 20 mins preincubation at 25° C., read-out: IC50 (concentration inhibiting 50% of the control enzymatic activity of FAAH)
Description: The compounds of the invention were subjected to pharmacological tests to determine their inhibitory effect on the enzyme FAAH (Fatty Acid Amide Hydrolase).
Thus, mouse brains (minus the cerebellum) are removed and stored at −80° C. The membrane homogenates are prepared extemporaneously by homogenizing the tissues using a Precellys® machine in the reaction buffer (10 mM Tris-HCl, pH=8, 150 mM NaCl and 1 mM ethylenediaminetetraacetic acid (EDTA)). The enzymatic reaction is performed in 96-well Multiscreen filtration plates in a final volume of 70 μl. Reaction buffer supplemented with fatty acid-free bovine serum albumin (BSA, 1 mg/ml) is used for the enzymatic reaction and the dilution of the compounds and the [1-^3H ethanol-amine] anandamide. The reaction buffer containing BSA (43 μl/well), the diluted test compounds at different concentrations (7 μl/well containing 1% DMSO) and the membrane preparation (10 μl/well, i.e. 200 μg of tissue per test) are successively added to the wells. After preincubation of the compounds with the enzyme at 25° C. for 20 mins, the reaction is started by adding [1-^3H ethanolamine] anandamide. (Specific activity 15-20 Ci/mmol) diluted with cold anandamide (10 μl/well, final concentration 10 μM, 0.01 μCi per test). After incubation for 20 mins at 25° C., the enzymatic reaction is stopped by addition of a […] solution of active charcoal prepared in 1.5M NaCl and 0.5M HCl buffer (50 μl/well). The mixture is stirred for 10 mins and the aqueous phase containing the [1-^3H]ethanolamine is then recovered by filtration under vacuum and counted by liquid scintillation.

| Structure (SMILES) | IC50 [nM] |
| --- | --- |
| CNC(=O)c1cc(COC(=O)N2CCC3(CC(Oc4ccc(-c5ccc(F)cc5)cc4)C3)C2)on1 (single isomer, unassigned) [Compound 29, 3-methylcarbamoyl-isoxazol-5-ylmethyl 2-(4′-fluorobiphenyl-4-yloxy)-6-aza-spiro[3.4]octane-6-carboxylate] | 5.3 |
| CNC(=O)c1cc(COC(=O)N2CCC3(CC(Oc4ccc(-c5ccc(F)cc5)cc4)C3)C2)on1 (single isomer, unassigned) [Compound 32, 3-methylcarbamoyl-isoxazol-5-ylmethyl 2-(4′-fluorobiphenyl-4-yloxy)-6-aza-spiro[3.4]octane-6-carboxylate] | 3 |
| CNC(=O)c1cc(COC(=O)N2CCC3(CC(Oc4ccc(-c5ccc(F)cc5)cc4)C3)C2)on1 (single isomer, unassigned) [Compound 33, 3-methylcarbamoyl-isoxazol-5-ylmethyl 2-(4′-fluorobiphenyl-4-yloxy)-6-aza-spiro[3.4]octane-6-carboxylate] | 19 |
| CNC(=O)c1cc(COC(=O)N2CCC3(CC2)CC(Oc2cccc(-c4ccc(F)cc4)c2)C3)on1 [Compound 7, 3-methylcarbamoyl-isoxazol-5-ylmethyl 2-(4′-fluorobiphenyl-3-yloxy)-7-aza-spiro[3.5]nonane-7-carboxylate] | 19 |
